Test results from publication PMC8096218, “Global RNA profiles show target selectivity and physiological effects of peptide-delivered antisense antibiotics” (Nucleic Acids Research, 2021).
Like-named read-outs stand apart in the source and are kept apart here. Where a SMILES comes first, the peptide text is derived from it. [ ]: non-standard residue; d: D form. Ahx = NCCCCCC(=O)O

What was measured:
[1] = system: Salmonella gene expression; assay: RNA-seq transcriptomic response; assay type: cell-based, Salmonella enterica serovar Typhimurium; conditions: 15 min; for number of differentially expressed genes: absolute fold change >2 and FDR-adjusted P-value <0.001 versus water; for logFC mgtA / logFC SL1344_0066A / logFC SL1344_2742: 5 μM RXR-constructs
Description: Bacterial overnight cultures were diluted 1:100 in fresh MHB and grown to OD600 0.5. The obtained cultures were diluted to ∼10^6 cfu/ml in non-cation-adjusted MHB. Afterward, the bacterial solution was transferred into low-binding 5 ml tubes (LABsolute) along with the 20× PNA, peptide or PPNA solution. The final concentrations were 5 μM for KFF- and RXR-PNAs, and 10 μM for Tat-PNAs. Equimolar concentrations were used for the respective peptide control conditions. As a negative control, cells were treated with the respective volume of sterile nuclease-free water, which was used as solvent for the test compounds.
A time kinetic was performed for subsequent northern blot analysis (5, 10, 15 min), in which the reaction was stopped at the indicated time points by using RNAprotect Bacteria (Qiagen). For RNA-seq analyses, adding RNAprotect Bacteria at 15 min post treatment stopped the reactions with the indicated PPNA constructs or the respective peptide. After vortexing for 5 s, the samples were incubated at room temperature for 10 min, followed by cell pelleting at 4°C and 21 100 ×g for 20 min. Pellets were directly used for RNA isolation or stored at –20°C (<2 days) until further processing. RNA was purified from bacterial pellets using isolation protocol #3, as described above (0.5 mg/ml lysozyme, miRNeasy).
DNase treatment, cDNA library preparation and sequencing was conducted at Vertis (Munich, Germany). The RNA samples were first fragmented using ultrasound (4 pulses of 30 s each at 4°C). Then, an oligonucleotide adapter was ligated to the 3′ ends of the RNA molecules. First-strand cDNA synthesis was performed using M-MLV reverse transcriptase and the 3′ adapter as primer. The first-strand cDNA was purified and the 5′ Illumina TruSeq sequencing adapter was ligated to the 3′ end of the antisense cDNA. The resulting cDNA was PCR-amplified to about 10–20 ng/μl using a high fidelity DNA polymerase. The cDNA was purified using the Agencourt AMPure XP kit (Beckman Coulter Genomics) and was analyzed by capillary electrophoresis. For Illumina NextSeq sequencing, the samples were pooled in approximately equimolar amounts. The cDNA pool was sequenced on an Illumina NextSeq 500 system using 75 bp read length.
Reads from the RNA-Seq experiments were trimmed, filtered and mapped against the S. enterica subsp. enterica serovar Typhimurium SL1344 reference genome and the three plasmids pSLT_SL1344, pCol1B9_SL1344 (other name is p2), and pRSF1010_SL1344 ([19]). BBDuk was applied to trim bases with a Phred quality score of <10, and adapters were removed simultaneously. Reads were then mapped against the reference genome using BBMap (v38.84) and then assigned genomic features, including both coding sequences and annotated sRNAs ([19],[29]) using the featureCounts method of the Subread (2.0.1) package.
All downstream analysis was performed using packages from the R/Bioconductor project. The raw read counts were imported and analyzed with edgeR (v3.30.0). Each set of PNA-peptide conjugate experiments (i.e. experiments with KFF, RXR and Tat peptide) was analyzed simultaneously. Genes with less than 14.6 counts per million (CPM) in at least three libraries were filtered. This cutoff value was calculated using 10/L, where L is the library size of the smallest sample (minimum library size) in millions.
Raw read counts were normalized by trimmed mean of M values (TMM) normalization. Differential expression analysis was conducted using edgeR ([31]). Estimation of quasi-likelihood (QL) dispersions was then run with the […] function. Then contrasts between all samples versus the water controls were created as input for the glmQLTest function.
Genes with an absolute fold change >2 and an adjusted P-value (Benjamini–Hochberg, ([32])) <0.001 were considered differentially expressed.

[2] = system: wild-type (wt) Salmonella enterica serovar Typhimurium strain SL1344
Description: (§1) MIC values were determined by broth microdilution according to standard protocols with a few modifications ([26]). An overnight bacterial cell culture, supplemented with the appropriate antibiotic when needed, was diluted 1:100 in fresh MHB and grown to OD600 0.5. The obtained culture was diluted to ∼10^5 cfu/ml or 10^6 cfu/ml, as indicated, in non-cation-adjusted MHB. Subsequently, 190 μl bacterial solution was dispensed into a 96-well plate (Thermo Fisher Scientific) along with 10 μl of a 20x PPNA, PNA or peptide working solution. Growth was monitored by measuring the OD at 600 nm every 20 min in a Synergy H1 plate reader (Biotek) with continuous double-orbital shaking (237 cpm) at 37°C for 24 h.

[3] = system: wild-type Salmonella enterica serovar Typhimurium strain LT2; assay: MIC determination by broth microdilution; assay type: cell-based; conditions: Table 3; ∼10^5 cfu/ml; three biological replicates
Description: as §1
(§2) Fig. S5. Growth k inetics for MIC determ ination of 10^5 cfu/m l Salmonella wt (LT 2) and its isogenic
(§3) Pho PC m utant in the presen ce of var ying co ncentra tio n s of the in dicat ed co njugat e s. ( A) KFF-acpP,
(§4) KFF-acpP-scram bled (scr) or KFF peptide in s erial dilutions from 10 µM to 0.3 µM. ( B) RXR- acpP,
(§5) RXR- acpP-scram bled (scr) or RXR peptide in serial dilutions from 10 µM to 0.3 µ M. ( C) T at-acpP,
(§6) T at-acpP-scram bled (scr) or T at peptide in serial dilutions from 20 µM to 0.6 µM. Data represent
(§7) the average of three biological replicates, error bars indicate standard error of the m ean (SEM).
(§8) (1 picture or pasted object on this page, not shown here)

SL1344 ΔphoP = assay: MIC determination by broth microdilution; assay type: cell-based, Salmonella enterica serovar Typhimurium; conditions: Table 3; ∼10^5 cfu/ml; three biological replicates
Description: as §1
Fig. S4. Growth kinetics for MIC determ ination of 10^5 cfu/m l Salmonella wt (SL1344) and its isogenic ∆phoP m utant in the pres ence of var ying concentrations of the indicated conjugates. ( A) KFF-acpP, KFF-acpP-scram bled (scr) or KFF peptide in serial dilutions from 10 µM to 0.3 µM. ( B) RXR- acpP, RXR-acpP-scram bled (scr) or RXR peptide in seria l d ilutions f rom 10 µM to 0. 3 µM. ( C) T at-acpP, T at-acpP-scrambled (scr) or T at peptide in serial dilutions from 20 µM to 0.6 µM. D ata represent the average of three biological replicates, error bars indicate standard er ror of the m ean […]
as §8

LT2 PhoP^C = assay: MIC determination by broth microdilution; assay type: cell-based, Salmonella enterica serovar Typhimurium; conditions: Table 3; ∼10^5 cfu/ml; three biological replicates
Description: as §1, §2, §3, §4, §5, §6, §7, §8

[4] = 5 μM KFF-/RXR-constructs, 10 μM Tat-constructs
[5] = edgeR, versus water, 5 μM KFF-/RXR-constructs, 10 μM Tat-constructs, triplicates
[6] = edgeR, versus water, 5 μM, triplicates
[7] = wild-type (wt) serovar Typhimurium strain SL1344, 24 h
[8] = edgeR, versus water, 10 μM Tat-constructs, triplicates
[9] = edgeR, versus water, 10 μM, triplicates
[10] = edgeR, versus water, 10 μM Tat-constructs, triplicates, listed as PNATATscr
[11] = Table 1, ∼10^5 cfu/ml, non-cation-adjusted MHB, 37°C, 24 h, lowest concentration with OD600 < 0.1
[12] = Table 2, ∼10^6 cfu/ml, non-cation-adjusted MHB, 37°C, 24 h, performed three times
[13] = Table 3, ∼10^5 cfu/ml, three biological replicates
[14] = edgeR, versus water, 5 μM KFF-/RXR-constructs, 10 μM Tat-constructs, triplicates, listed as PNAKFFscr
[15] = RNA-seq, 5 μM, listed as RXR-acpP-scrambled
[16] = edgeR, versus water, 10 μM Tat-constructs, triplicates, listed as PNARXRscr

Compound | number of differentially expressed genes [1, 4] | logFC AmgR [1, 5] | logFC mig-14 [1, 5] | logFC virK [1, 5] | logFC yfbE [1, 6] | MIC [2, 7] [µM] | MIC in μM, SL1344 wt [2, 7] [µM] | logFC mgtA [1, 8] | MIC in μM, LT2 wt [3] [µM] | MIC in μM, SL1344 ΔphoP (SL1344 ΔphoP) [µM] | MIC in μM, LT2 PhoP^C (LT2 PhoP^C) [µM] | MIC [2, 11] [µM] | MIC [2, 12] [µM] | MIC in μM, SL1344 wt [2, 13] [µM] | further results
CC(=O)N[C@@H](CCCCN)C(=O)N[C@@H](Cc1ccccc1)C(=O)N[C@@H](Cc1ccccc1)C(=O)N[C@@H](CCCCN)C(=O)N[C@@H](Cc1ccccc1)C(=O)N[C@@H](Cc1ccccc1)C(=O)N[C@@H](CCCCN)C(=O)N[C@@H](Cc1ccccc1)C(=O)N[C@@H](Cc1ccccc1)C(=O)N[C@@H](CCCCN)C(=O)O [KFF, reference compound] (Ac-KFFKFFKFFK-OH; C-terminus assumed) | 32 | 1.914 | 2.101 | 2.978 | 1.473 | >10 | >10 |  |  |  |  |  |  |  | upregulation of AmgR transcript levels ([1]; RNA-seq, 5 μM): ~4 fold; logFC yjeH [1, 6]: 1.189
CC(=O)N[C@@H](CCCNC(=N)N)C(=O)NCCCCCC(=O)N[C@@H](CCCNC(=N)N)C(=O)N[C@@H](CCCNC(=N)N)C(=O)NCCCCCC(=O)N[C@@H](CCCNC(=N)N)C(=O)N[C@@H](CCCNC(=N)N)C(=O)NCCCCCC(=O)N[C@@H](CCCNC(=N)N)C(=O)N[C@@H](CCCNC(=N)N)C(=O)NCCCCCC(=O)N[C@@H](CCCNC(=N)N)C(=O)NCCCCCC(=O)O [RXR, reference compound] (Ac-R[Ahx]RR[Ahx]RR[Ahx]RR[Ahx]R[Ahx]-OH; C-terminus assumed) | 26 | 1.916 | 1.873 | 2.819 | 1.219 | >10 | >10 | 1.432 |  |  |  |  |  |  | fold change in gene expression of phoQ ([1]; RNA-seq, 5 μM, below cutoff of >2): 1.87 fold
CC(=O)NCC(=O)N[C@@H](CCCNC(=N)N)C(=O)N[C@@H](CCCCN)C(=O)N[C@@H](CCCCN)C(=O)N[C@@H](CCCCN)C(=O)N[C@@H](CCCNC(=N)N)C(=O)N[C@@H](CCCNC(=N)N)C(=O)N[C@@H](CCC(N)=O)C(=O)N[C@@H](CCCNC(=N)N)C(=O)N[C@@H](CCCNC(=N)N)C(=O)N[C@@H](CCCNC(=N)N)C(=O)N[C@@H](Cc1ccc(O)cc1)C(=O)N[C@@H](CCCCN)C(=O)O [Tat, reference compound] (Ac-GRKKKRRQRRRYK-OH) | 97 | 3.7167 |  | 4.014 |  |  | >20 | 2.72 |  |  |  |  |  |  | maximum fold change, mgtB ([1]; RNA-seq, 10 μM): 35 fold; logFC cigR [1, 9]: 3.46; logFC phoN [1, 9]: 2.478
GRKKKRRQRRRYK [Tat-acpP-scr] |  |  |  |  |  |  |  |  | >20 | 20 | >20 | >20 | >40 | >20 | number of differentially expressed sRNAs, apart from AmgR upregulation ([1]; RNA-seq, 10 μM, listed as Tat-acpP-scrambled): 13; logFC SL1344_0066A [1, 10]: 4.787; logFC SL1344_2742 [1, 10]: 4.052; logFC SL1344_1472 [1, 9]: 3.687; logFC ccmE2 [1, 9]: 4.962; logFC recJ ([1]; edgeR, versus water, 10 μM, triplicates, listed as PNATATscr): 2.253
KFFKFFKFFK [KFF-acpP-scr] | 10 |  |  |  | 0.9577 |  |  |  | >10 | ≥10 | >10 | >10 | >10 | >10 | upregulation of AmgR transcript levels ([1]; RNA-seq, 5 μM, listed as KFF-acpP-scrambled): ~2 fold; logFC mig-14 [1, 14]: 1.6196; logFC virK [1, 14]: 2.3333; logFC SL1344_1602 [1, 6]: 1.058; logFC cdh-a [1, 6]: 0.9654
RXRRXRRXRRXRXB [RXR-acpP-scr] |  |  |  |  |  |  |  |  | 10 | 5 | >10 | >10 | >10 |  | number of downregulated sRNAs, apart from the induction of AmgR [1, 15]: three; upregulation of mig-14 [1, 15]: 1.92 fold; logFC yfiA [1, 5]: 1.5255; logFC SL1344_0066A [1, 16]: 4.581; logFC SL1344_2742 [1, 16]: 3.203; logFC mgtA [1, 16]: 1.779; logFC yihO [1, 6]: 3.308
